Tested on: anti-thy-1 antibody-induced nephritis
Assay: Anti-thy-1 antibody-induced nephritis model
Type: in vivo, male Wistar rats
Conditions: for Nuclear cell count in nephritic glomerulus / Urinary protein: oral, once a day until day 6, rats
Procedure: [IV] Anti-thy-1 antlbody-induced nephritis model (in vivo)
The test compound (prednisolone, compound of Example 7-35) was orally administered to male Wistar rats (6 weeks old), and one hour later, an anti-thy-1 antibody (ox-7, 0.938 mg/ml) was administered at 0.1 ml/rat from the tail vein. The test compound was administered once a day thereafter until day 6. At day 6, the rats were forcibly loaded with 8 ml of tap water and then deprived of water for consecutive 16 hours, during which period urine samples were taken from the rats. At day 7, the rats were killed by exsanguination. The kidney was removed, weighed and fixed with formalin, and tissue samples (PAS stained) were prepared therefrom. Evaluation was done by measuring urinary protein and nuclear cell count in nephritic glomerulus section. The test compound was prepared into a suspension with 0.5% HPMC and administered at 10 ml/kg per dose.
Sham no administration of anti-thy-1 antibody,
loaded with water and orally administered
Control administration of anti-thy-1 antibody,
Prednisolone administration of anti-thy-1 antibody,
Compound of Ex. 7-35 with said test compound

SMILES | Nuclear cell count in nephritic glomerulus (3 mg/kg) | Urinary protein (3 mg/kg) | Nuclear cell count in nephritic glomerulus (0.1 mg/kg) | Urinary protein (0.1 mg/kg) | suppressive effect on increase in nuclear cell count in nephritic glomerulus (0.1 mg/kg, result in words) | suppressive effect on increase in urinary protein (0.1 mg/kg, result in words)
C[C@]12C=CC(=O)C=C1CC[C@@H]1[C@@H]2[C@@H](O)C[C@@]2(C)[C@H]1CC[C@]2(O)C(=O)CO [Prednisolone, prednisolone, reference compound] | 76.9 ± 0.9 nuclei/glomerulus | 20.9 ± 2.7 mg/16 hr |  |  |  | 
CCCCCOc1ccc2c(c1OCCCCC)CN(CCc1ccc(N)cc1)C2=O.Cl [Example 7-35, 2-[2-(4-aminophenyl)ethyl]-4,5-bispentyloxy-2,3-dihydroisoindol-1-one hydrochloride] |  |  | 84.8 ± 1.2 nuclei/glomerulus | 15.2 ± 2.4 mg/16 hr | significant suppressive effect | significant suppressive effect
